{
  "source": "ChEMBL document CHEMBL1201862",
  "about": "“PubChem BioAssay data set” (2004)",
  "key": {"[1]": {"target": "Potassium channel subfamily K member 3 (Rattus norvegicus, UniProt O54912)", "sequence (O54912 whole entry, the tested form may be a part)": "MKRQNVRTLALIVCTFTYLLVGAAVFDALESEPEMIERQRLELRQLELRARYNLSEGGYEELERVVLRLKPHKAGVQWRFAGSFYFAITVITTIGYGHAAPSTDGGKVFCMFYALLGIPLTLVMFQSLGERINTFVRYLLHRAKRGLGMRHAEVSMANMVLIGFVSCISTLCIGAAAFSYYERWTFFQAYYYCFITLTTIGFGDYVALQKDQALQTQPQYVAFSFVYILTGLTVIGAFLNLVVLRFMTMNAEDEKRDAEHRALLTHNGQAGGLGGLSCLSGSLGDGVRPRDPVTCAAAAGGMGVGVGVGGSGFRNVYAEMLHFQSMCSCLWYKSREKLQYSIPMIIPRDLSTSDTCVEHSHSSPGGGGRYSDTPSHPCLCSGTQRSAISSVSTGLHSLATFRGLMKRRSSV", "test": "SAR analysis for the identification of selective inhibitors of the two-pore domain potassium channel TASK1(KCNK3):Automated Electrophysiology.", "format": "functional"}, "[2]": {"target": "Potassium channel subfamily K member 9 (Homo sapiens, UniProt Q9NPC2)", "sequence (Q9NPC2 whole entry)": "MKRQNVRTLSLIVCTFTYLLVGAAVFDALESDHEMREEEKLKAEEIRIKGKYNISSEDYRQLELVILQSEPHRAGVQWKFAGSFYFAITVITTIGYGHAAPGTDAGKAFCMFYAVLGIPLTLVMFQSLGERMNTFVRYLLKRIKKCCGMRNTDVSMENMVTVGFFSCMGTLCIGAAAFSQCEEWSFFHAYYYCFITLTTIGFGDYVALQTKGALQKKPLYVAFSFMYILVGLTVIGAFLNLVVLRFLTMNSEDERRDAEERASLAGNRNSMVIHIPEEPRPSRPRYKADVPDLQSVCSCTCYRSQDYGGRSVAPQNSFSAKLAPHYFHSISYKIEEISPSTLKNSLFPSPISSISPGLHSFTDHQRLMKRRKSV", "test": "KCNK9 flux blockade, concentration-response – cell-based, FluxOR thallium flux, selectivity assay for TASK1 inhibitor project, SAR follow-up (AID 652211);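 note: potency is for inhibitors of the channel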", "format": "functional"}, "[3]": {"target": "Potassium channel subfamily K member 3 (Homo sapiens, UniProt O14649)", "sequence (O14649 whole entry)": "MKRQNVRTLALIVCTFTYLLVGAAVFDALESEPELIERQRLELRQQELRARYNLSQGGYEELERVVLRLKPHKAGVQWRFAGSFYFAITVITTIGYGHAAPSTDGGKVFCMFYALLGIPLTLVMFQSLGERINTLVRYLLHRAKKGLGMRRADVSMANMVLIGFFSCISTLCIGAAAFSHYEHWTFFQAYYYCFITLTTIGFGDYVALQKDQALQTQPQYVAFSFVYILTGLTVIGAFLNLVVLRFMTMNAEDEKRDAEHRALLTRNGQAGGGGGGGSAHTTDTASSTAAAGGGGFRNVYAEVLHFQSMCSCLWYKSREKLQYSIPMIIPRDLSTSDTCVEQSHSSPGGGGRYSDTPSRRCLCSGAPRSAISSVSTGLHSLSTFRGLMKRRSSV", "test": "inhibition of human KCNK3 channel flux – CHO cells, FluxOR thallium flux, SAR follow-up (AID 652212)", "format": "functional"}, "[4]": {"test": "TB: CFU replicating Measured in Microorganism System Using Imaging - 7108-05_Inhibitor_Dose_DryPowder_Activity_Set2.", "format": "functional"}, "[5]": {"test": "toxicity to human HepG2 hepatoma cells – cell-based, plate reader, dry powder samples, cytotoxicity control, dose response (AID 1159569);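 note: inhibitor potency with signal falling toward the positive control level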", "format": "functional"}, "[6]": {"test": "Dd2 malaria parasite growth inhibition potency – SYBR Green, dry powder samples, dose response (AID 1159566);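 note: potency for growth inhibition with lower SYBR green DNA signal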", "format": "functional, cell-based"}, "[7]": {"test": "P. falciparum Dd2 growth inhibitors, dose response, SYBR Green, cherry-picked samples (AID 1159567)", "format": "functional, cell-based"}, "[8]": {"test": "growth inhibition of PfATP4-mutant resistant parasites – NITD609-resistant line, SYBR Green, dry powder, dose response (AID 1159571);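 note: parasites synchronized at ring stage by sorbitol before testing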", "format": "functional, cell-based"}, "[9]": {"test": "growth inhibition of yeast DHODH-expressing 3D7 parasites – SYBR Green, dry powder samples, dose response (AID 1159570);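 note: parasite growth measured after 72 hours of compound exposure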", "format": "functional, cell-based"}, "[10]": {"test": "toxicity toward HepG2 hepatoma cells – cell-based, dry powder samples, cytotoxicity control, dose response (AID 720568)", "format": "functional"}, "[11]": {"test": "miR-122 quantity in Huh7 after inhibitor exposure – cell-based, RT-qPCR, dry powder, orthogonal assay for miR-122 inhibitor project, dose response (AID 687041)", "format": "functional"}, "[12]": {"test": "cells"}, "[13]": {"test": "viability of uninfected HEp-2 cells – cell-based, HTS, cytotoxicity control for RSV inhibitor project, dose response (AID 2410)", "format": "functional", "conditions": "human respiratory syncytial virus"}, "[14]": {"test": "Late stage results for the probe development effort to identify inhibitors of Plasmodium falciparum gametocytes: Luminescence-based cell-based high throughput dose response assay to identify inhibitors of viability of late stage Plasmodium falciparum gametocytes.", "format": "functional"}, "[15]": {"test": "IC50 of Artemis nuclease activity blockers – biochemical, fluorescence intensity, dose response (AID 720701);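 note: Artemis endonuclease enzyme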", "format": "functional"}, "[16]": {"system": "H9c2", "test": "cells", "format": "functional, cell-based", "conditions": "Rattus norvegicus, H9c2, Myocardium"}, "[17]": {"test": "M. tuberculosis H37Rv growth inhibitors, H37Rv strain (AID 1626)", "format": "functional"}, "[18]": {"target": "Delta-type opioid receptor (Homo sapiens, UniProt P41143)", "sequence (P41143 whole entry)": "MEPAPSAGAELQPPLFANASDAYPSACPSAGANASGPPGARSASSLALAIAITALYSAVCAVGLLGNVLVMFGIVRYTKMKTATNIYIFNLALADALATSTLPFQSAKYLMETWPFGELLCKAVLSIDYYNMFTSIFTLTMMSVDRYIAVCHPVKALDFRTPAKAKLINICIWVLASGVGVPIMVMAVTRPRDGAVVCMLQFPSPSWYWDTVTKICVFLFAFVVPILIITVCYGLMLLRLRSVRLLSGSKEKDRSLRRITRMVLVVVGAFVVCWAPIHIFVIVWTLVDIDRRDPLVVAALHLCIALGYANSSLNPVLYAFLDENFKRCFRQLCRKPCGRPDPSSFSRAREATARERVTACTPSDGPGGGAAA", "test": "Late-stage results from the probe development effort to identify antagonists of OPRK1: fluorescence-based cell-based dose response OPRD1 counterscreen.", "format": "functional"}, "[19]": {"target": "Mu-type opioid receptor (Homo sapiens, UniProt P35372)", "sequence (P35372 whole entry)": "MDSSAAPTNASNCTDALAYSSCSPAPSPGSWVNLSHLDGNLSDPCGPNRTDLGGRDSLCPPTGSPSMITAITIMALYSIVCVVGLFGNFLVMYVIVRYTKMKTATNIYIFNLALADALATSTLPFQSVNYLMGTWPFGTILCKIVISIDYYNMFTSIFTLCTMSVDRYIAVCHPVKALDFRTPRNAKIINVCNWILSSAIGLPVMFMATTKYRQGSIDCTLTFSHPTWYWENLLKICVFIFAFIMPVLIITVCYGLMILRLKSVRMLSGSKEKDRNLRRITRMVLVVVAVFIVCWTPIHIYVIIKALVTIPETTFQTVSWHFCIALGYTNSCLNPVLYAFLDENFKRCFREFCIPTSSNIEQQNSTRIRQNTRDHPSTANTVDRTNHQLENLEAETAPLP", "test": "Late-stage results from the probe development effort to identify antagonists of OPRK1: luminescence-based cell-based dose response OPRM1 counterscreen.", "format": "functional"}, "[20]": {"test": "viability of BHK-21 cells – cell-based, secondary screen, cytotoxicity control for flavivirus guanylyltransferase probe project (AID 624078)", "format": "functional"}},
  "note": "Calls of active or inactive are those of the source. Unless noted, no cut-off for these calls is given here.",
  "data": [
    {"smiles": "CCOc1ccccc1NC(=O)c1cccc(NC(=O)C2CCCC2)c1", "values": [
      {"measurement": "IC50", "setting": "[1]", "value": "0.123 µM (active)"},
      {"measurement": "IC50", "setting": "[2]", "value": "1.84 µM (active)"},
      {"measurement": "IC50", "setting": "[3]", "value": "0.054 µM (active)"}
    ]},
    {"smiles": "Cn1c(-n2c(=O)nc3n(C)c4ccccc4n3c2=O)nc2ccccc21", "values": [
      {"measurement": "AbsAC90", "setting": "[4]", "value": 268.91, "unit": "µM"}
    ]},
    {"smiles": "COc1ccc(S(=O)(=O)N2CCC3(CC2)CN(Cc2ccncc2)[C@@H](CO)c2[nH]c4cc(OC)ccc4c23)cc1", "values": [
      {"measurement": "AC50", "setting": "[5]", "value": "22.9 µM (active)"},
      {"measurement": "AC50", "setting": "[6]", "value": "1.17 µM (active)"},
      {"measurement": "AC50", "setting": "[7]", "value": "2.29 µM (active)"},
      {"measurement": "AC50", "setting": "[8]", "value": "1.67 µM (active)"},
      {"measurement": "AC50", "setting": "[9]", "value": "1.41 µM (active)"}
    ]},
    {"smiles": "CC(=O)N[C@H]1[C@@H](O[C@@H]2OC(C[C@@H](O)C3O[C@@H](n4ccc(=O)[nH]c4=O)[C@H](O)[C@@H]3O)[C@H](O)[C@H](O)[C@H]2NC(=O)/C=C/CCCCCCCCCCC(C)C)O[C@H](CO)[C@@H](O)[C@@H]1O", "note": "(stereo not given in full)", "values": [
      {"measurement": "AC50", "setting": "[10]", "value": "13.5 µM (active)"}
    ]},
    {"smiles": "CC1CCCCN1C(=O)c1cc2nc(-c3ccccc3)cc(-c3ccccc3)n2n1", "note": "(stereo not given)", "values": [
      {"measurement": "AC50", "setting": "[11]", "value": "1.13 µM (active)"},
      {"measurement": "IC50", "setting": "[12]", "value": "19.3 µM (active)"},
      {"measurement": "CC50", "setting": "[13]", "value": "15.6 µM (active)"}
    ]},
    {"smiles": "COc1ccc(-c2nn(-c3ccccc3)cc2C(=O)Nc2nccs2)cc1", "values": [
      {"measurement": "IC50", "setting": "[14]", "value": "> 74.4 µM (inactive)"},
      {"measurement": "IC50", "setting": "[15]", "value": "9.49 µM (active)"},
      {"measurement": "IC50", "setting": "[16]", "value": "> 79 µM (inactive)"},
      {"measurement": "IC50", "setting": "[17]", "value": "> 100 µM (active)"}
    ]},
    {"smiles": "COC(=O)c1cc(Br)cnc1N1CCC(NC2CCCC(O)C2)CC1", "note": "(stereo not given)", "values": [
      {"measurement": "IC50", "setting": "[18]", "value": "> 50 µM (inactive)"},
      {"measurement": "IC50", "setting": "[19]", "value": "16 µM (inactive)"}
    ]},
    {"smiles": "O=S(=O)(Nc1cc(SCc2ccccc2)c(O)c2ccccc12)c1ccc(Cl)cc1", "values": [
      {"measurement": "CC50", "setting": "[20]", "value": "15 µM (active)"}
    ]}
  ]
}
